Measurements taken from the NIST ThermoML archive (doi:10.1021/je600527c).
± gives the expanded uncertainty stated by the source.

Columns and labels:
[1] = 298.15 K; 101.33 kPa; Liquid; Pycnometric method
[2] = refractive index (Na D-line) (dimensionless); details: 298.15 K; 101.33 kPa; Liquid; Standard Abbe refractometry

CC(=O)O [acetic acid]
mass density [1]: 1045 ± 8 kg/m3
refractive index [2]: 1.37 ± 0.001
